These results are taken from US20220305093A1, “NK-LYSIN PEPTIDE COMPOSITIONS AND METHODS FOR THEIR USE AS ANTIMICROBIAL/ANTIVIRAL AGENTS” (priority 2021, published 2022).

Test [1] concerns Escherichia coli (ATCC 11775). Kind of test: microbe, parasite or virus in culture. Particulars: ATCC 11775. Here is the method:
(§1) The minimum inhibitory concentration (MIC) is defined as the lowest concentration of an antimicrobial ingredient or agent that is bacteriostatic (prevents the visible growth of bacteria).
(§2) Mueller Hinton broth (MHB) comprising 0.01% v/v acetic acid (Sigma Aldrich; St Louis, Mo.) and 0.2% w/v bovine serum albumin (Sigma Aldrich). Equal concentrations of bacteria were plated in wells of standard tissue culture microplates at a density of 0.5×10^8 CFU ml^−1 in MHB per well. Treatments were equivalent volumes (50 μl) of NK-lysin peptides in concentrations of 0 to 150 μg/ml, or no NK-lysin peptides for control wells. The treated plates were incubated at […] and optical densities were determined for each well at 0 minutes, 1, 2 and 3 hours and after an overnight incubation.

The subject of test [2] is Klebsiella oxytoca (ATCC 49131). Kind of test: microbe, parasite or virus in culture. The settings on record: ATCC 49131. Here is the method: as §1, §2
Test [3] deals with Klebsiella pneumoniae (patient isolate). Nature of the test: microbe, parasite or virus in culture. The settings on record: patient isolate. Here is the method:
as §1, §2

The subject of test [4] is Pseudomonas aeruginosa (ATCC 9027). Nature of the test: microbe, parasite or virus in culture. Particulars: ATCC 9027. Here is the method:
as §1, §2

Test [5] deals with Salmonella typhimurium (ATCC 14028). Nature of the test: microbe, parasite or virus in culture. Particulars: S.typhimrium ATCC 14028. As to the method: as §1, §2
In test [6] the test system is Shigella sonnei (ATCC 25931). Nature of the test: microbe, parasite or virus in culture. The settings on record: Sh. sonnei ATCC 25931. Here is the method:
as §1, §2

The subject of test [7] is Streptococcus mutans (isolate). Nature of the test: microbe, parasite or virus in culture. Particulars: isolate. As to the method:
as §1, §2

For test [8], the system named is Streptococcus pyogenes (ATCC 19615). Nature of the test: microbe, parasite or virus in culture. The settings on record: ATCC 19615. As to the method:
as §1, §2

Test [9] relates to Salmonella typhimurium (ATCC 14028). Kind of test: Leakage of intracellular contents (DNA/RNA release, OD 260 nm). Format: cell-based. The settings on record: 15 min. As to the method: The protocol of Carson et al. (Antimicrob Agents Chemother. 2002 June; 46(60:1914-20) was used with some changes to perform the assay for determining the loss of DNA/RNA. In short, 50 μl of bacteria was combined with the same volume of NK-lysin peptides at 2×MIC and then incubated at room temperature. Samples were harvested at 15, 30 and 60 minutes, diluted 1:10 and then filtered across 0.22 μm pores (Merck; Tullagreen, Ireland). The measurement of the O.D 260 nm of the filtrates was carried out over NanoDrop plate (Greiner Bio-One GmbH; Frickenhausen, Germany). The results were presented as a ratio to the original OD260 nm. 16S rRNA Amplification Two universal primer sets 341F and 534 R were used to amplify 500 bp of 16s rRNA gene of Salmonella typhimurium. The forward primer had the following sequence: 5′-CCT ACG GGA GGC AGC AG-3′ (SEQ ID NO:04), whereas the reverse primer had the following: 5′-ATT ACC GCG GCT GCT GGC-3′ (SEQ ID NO:05). PCR amplification reactions were carried out in 50 μl of overall volume with a reaction mixture comprising 50 ng template DNA, 10 pmol each primer, 0.25 U Taq DNA polymerase, 10 mM Tris-HCl (pH.9.0), […] dNTPs mix, 30 mM KCl, 1.5 mM MgCl2 in sterile nuclease-free water. […]

Structures are written as SMILES. Values after ≈ are worked out from the molar mass of the structure shown. Residues, ends and D or L forms follow the SMILES beside them.

Consider `CC[C@H](C)[C@H](NC(=O)[C@H](C)NC(=O)[C@H](CC(=O)O)NC(=O)[C@H](CCC(=O)O)NC(=O)[C@H](CC(=O)O)NC(=O)[C@@H]1CCCN1)C(=O)N[C@@H](CC(N)=O)C(=O)N[C@@H](CC(N)=O)C(=O)N[C@@H](C)C(=O)N[C@@H](CC(C)C)C(=O)N[C@@H](CC(N)=O)C(=O)N[C@@H](CCCCN)C(=O)N[C@H](C(=O)N[C@@H](CS)C(=O)N[C@@H](CO)C(=O)N[C@H](C(=O)NCC(=O)N[C@@H](CCCNC(=N)N)C(=O)N[C@@H](CCCNC(=N)N)C(=O)N[C@@H](CCC(N)=O)C(=O)N[C@@H](CCCNC(=N)N)C(=O)N[C@@H](CO)C(=O)N[C@H](C(=O)N[C@@H](CS)C(=O)N[C@@H](CCCCN)C(=O)N[C@@H](CCC(N)=O)C(=O)N[C@@H](CC(C)C)C(=O)N[C@@H](CC(C)C)C(=O)N[C@@H](CCCCN)C(=O)N[C@@H](CCCCN)C(=O)O)[C@@H](C)CC)[C@@H](C)O)C(C)C` [Chicken NK-lysin] (H-PDEDAINNALNKVCSTGRRQRSICKQLLKK-OH; N-terminus and C-terminus assumed), for which the MBC is 25 ± 0.010 µg/mL (≈ 7.35 µM) in [1]; 25 ± 0.10 µg/mL (≈ 7.35 µM) in test [2]; 25 ± 0.010 µg/mL (≈ 7.35 µM) in test [3]; 25 ± 0.013 µg/mL (≈ 7.35 µM) in [4]; 30 ± 0.10 µg/mL (≈ 8.82 µM) in test [5]; 15 ± 0.00 µg/mL (≈ 4.41 µM) in [7]. Moreover, the MBC in [8] amounted to 25 ± 0.010 µg/mL (≈ 7.35 µM). The MIC in [1] is 15 ± 0.012 µg/mL (≈ 4.41 µM); in test [2] it was 15 ± 0.015 µg/mL (≈ 4.41 µM); in test [3], 15 ± 0.030 µg/mL (≈ 4.41 µM); in test [4] it was 15 ± 0.012 µg/mL (≈ 4.41 µM); in test [5] it was 15 ± 0.098 µg/mL (≈ 4.41 µM); in test [6] it was 15 ± 0.033 µg/mL (≈ 4.41 µM). Besides, the MIC in [7] and in [8] was 15 ± 0.00 µg/mL (≈ 4.41 µM) each time. The “release of DNA/RNA (OD 260 nm), words” value in test [9] is recorded as “higher activity”.
